In ChEMBL document CHEMBL1129886, “Novel indole containing thiazolidinedione derivatives as potent euglycemic and hypolipidaemic agents” (1997):

Experiments:
Assay type in all cases: functional
Mus musculus [1] = test: Percentage reduction in random blood sugar in mice measured on 0th and 6th day at a dose of 200 mg/kg peroral administration; conditions: route oral
Mus musculus [2] = test: Percentage reduction in random blood sugar in mice measured on 0th and 3rd day at a dose of 200 mg/kg peroral administration; conditions: route oral
Mus musculus [3] = test: Percentage reduction in triglyceride measured on 0 and 9th day at a dose of 100 mg/kg
Mus musculus [4] = test: Percentage reduction in random blood sugar in mice measured on 0th and 9th day at a dose of 200 mg/kg peroral administration; conditions: route oral
Mus musculus [5] = test: Percentage reduction in AUC determined Glucose tolerance test in 18 h fasted animals after feeding 3 g/kg of glucose at a dose of 200 mg/kg peroral administration; conditions: route oral
Mus musculus [6] = test: Percentage reduction in triglyceride measured on 0 and 9th day at a dose of 200 mg/kg

SMILES | Reduction in RBS (Mus musculus [1]) | Reduction in RBS (Mus musculus [2]) | Reduction in TG (Mus musculus [3]) | Reduction in RBS (Mus musculus [4]) | Reduction in AUC (Mus musculus [5]) | Reduction in TG (Mus musculus [6])
O=C1NC(=O)C(Cc2ccc(OCCn3c4ccccc4c4ccccc43)cc2)S1 (stereo not given) | 0% | 0% | 21% | 0% |  | 
NC(Cc1cn(CCOc2ccc(/C=C3\SC(=O)NC3=O)cc2)c2ccccc12)C(=O)O (stereo not given) | 29% | 0% | 64% | 0% |  | 
O=C1NC(=O)C(Cc2ccc(OCCn3ccc4ccccc43)cc2)S1 (stereo not given) | 48% | 64% |  | 74% | 55% | 77%
O=C1NC(=O)/C(=C/c2ccc(OCCn3c4ccccc4c4ccccc43)cc2)S1 | 0% | 0% | 44% | 0% |  | 
Cc1c(C)c2c(c(C)c1O)CCC(C)(COc1ccc(CC3SC(=O)NC3=O)cc1)O2 (stereo not given) [TROGLITAZONE] | 16% | 14% |  | 24% | 20% | 50%
O=C1NC(=O)/C(=C/c2ccc(OCCn3cnc4ccccc43)cc2)S1 | 31% | 22% |  | 33% |  | 76%
O=C1NC(=O)/C(=C/c2ccc(OCCn3ccc4ccccc43)cc2)S1 | 40% | 27% |  | 33% | 15% | 37%
O=C1NC(=O)/C(=C/c2ccc(OCCn3c(C(=O)O)cc4ccccc43)cc2)S1 | 39% | 50% |  | 12% |  | 0%
